# Laboratory results published in ChEMBL document CHEMBL3885881, “DrugMatrix”.
# Organism: Rattus norvegicus
# Experiment: DrugMatrix - Regimen: Daily Repeat
# Format: toxicity, organism-based, Sprague-Dawley
# Design: regimen Daily Repeat, gender Male, age 6-8 weeks
# Conditions: in vivo, iv, vehicle 100 % SALINE; for ABSOLUTE BASOPHIL / ABSOLUTE EOSINOPHIL / ABSOLUTE LYMPHOCYTE / ABSOLUTE MONOCYTE / ABSOLUTE SEGMENTED NEUTROPHIL / BASOPHIL / EOSINOPHIL / ERYTHROCYTE COUNT / HEMATOCRIT / HEMOGLOBIN / LEUKOCYTE COUNT / LYMPHOCYTE / MEAN CORPUSCULAR HEMOGLOBIN / MEAN CORPUSCULAR HEMOGLOBIN CONCENTRATION / MEAN CORPUSCULAR VOLUME / MONOCYTE / NEUTROPHIL / NUCLEATED RED BLOOD CELLS / PLATELET COUNT: tissue Blood; for ALANINE AMINOTRANSFERASE / ALBUMIN / ALKALINE PHOSPHATASE / ASPARTATE AMINOTRANSFERASE / BLOOD UREA NITROGEN / CARBON DIOXIDE / CHLORIDE / CHOLESTEROL / CREATINE PHOSPHOKINASE / CREATININE / GLUCOSE / LACTATE DEHYDROGENASE / LIPASE / PHOSPHORUS / POTASSIUM / SODIUM / TOTAL BILIRUBIN / TOTAL PROTEIN / URIC ACID: tissue Plasma
# [1] = 0 mg/kg, 72 h, dose level Control, time 3 day
# [2] = 0 mg/kg, 120 h, dose level Control, time 5 day
# [3] = […], 72 h, dose 0.0033 mg/Kg, dose level Low, time 3 day
# [4] = […], 72 h, dose 0.033 mg/Kg, dose level High, time 3 day
smiles,measurement,setting,value
COc1cc2c3cc1Oc1cc(ccc1O)C[C@@H]1c4c(cc(OC)c(O)c4Oc4ccc(cc4)C[C@@H]3N(C)CC2)CC[N+]1(C)C.[Cl-],ABSOLUTE BASOPHIL,[1],0 CELLS/uL
same,ABSOLUTE EOSINOPHIL,[1],0 CELLS/uL
same,ABSOLUTE LYMPHOCYTE,[1],11636.83 CELLS/uL
same,ABSOLUTE MONOCYTE,[1],159 CELLS/uL
same,ABSOLUTE SEGMENTED NEUTROPHIL,[1],1170.83 CELLS/uL
same,BASOPHIL,[1],0%
same,EOSINOPHIL,[1],0%
same,ERYTHROCYTE COUNT,[1],5.46 x10E6/uL
same,HEMATOCRIT,[1],34.05%
same,HEMOGLOBIN,[1],13.58 G/DL
same,LEUKOCYTE COUNT,[1],12.97 x10E3/uL
same,LYMPHOCYTE,[1],89.67%
same,MEAN CORPUSCULAR HEMOGLOBIN,[1],24.87 pg
same,MEAN CORPUSCULAR HEMOGLOBIN CONCENTRATION,[1],39.9 G/DL
same,MEAN CORPUSCULAR VOLUME,[1],62.3 fL
same,MONOCYTE,[1],1.33%
same,NEUTROPHIL,[1],9%
same,NUCLEATED RED BLOOD CELLS,[1],0.17 /100WBC
same,PLATELET COUNT,[1],824 x10E3/uL
same,ALANINE AMINOTRANSFERASE,[1],64.83 u/L
same,ALBUMIN,[1],4.08 G/DL
same,ALKALINE PHOSPHATASE,[1],421 u/L
same,ASPARTATE AMINOTRANSFERASE,[1],116.83 u/L
same,BLOOD UREA NITROGEN,[1],16.83 mg/dL
same,CARBON DIOXIDE,[1],28 mmol/L
same,CHLORIDE,[1],101.33 MEQ/L
same,CHOLESTEROL,[1],74.17 mg/dL
same,CREATINE PHOSPHOKINASE,[1],748.5 u/L
same,CREATININE,[1],0.22 mg/dL
same,GLUCOSE,[1],152.83 mg/dL
same,LACTATE DEHYDROGENASE,[1],578.5 u/L
same,LIPASE,[1],9.83 u/L
same,PHOSPHORUS,[1],11.63 mg/dL
same,POTASSIUM,[1],5.93 MEQ/L
same,SODIUM,[1],142.1 MEQ/L
same,TOTAL BILIRUBIN,[1],0.17 mg/dL
same,TOTAL PROTEIN,[1],5.77 G/DL
same,URIC ACID,[1],1.43 mg/dL
same,ABSOLUTE BASOPHIL,[2],0 CELLS/uL
same,ABSOLUTE EOSINOPHIL,[2],159.17 CELLS/uL
same,ABSOLUTE LYMPHOCYTE,[2],12267.5 CELLS/uL
same,ABSOLUTE MONOCYTE,[2],30 CELLS/uL
same,ABSOLUTE SEGMENTED NEUTROPHIL,[2],1160 CELLS/uL
same,BASOPHIL,[2],0%
same,EOSINOPHIL,[2],1.17%
same,ERYTHROCYTE COUNT,[2],5.52 x10E6/uL
same,HEMATOCRIT,[2],34.3%
same,HEMOGLOBIN,[2],13.73 G/DL
same,LEUKOCYTE COUNT,[2],13.62 x10E3/uL
same,LYMPHOCYTE,[2],90.5%
same,MEAN CORPUSCULAR HEMOGLOBIN,[2],24.92 pg
same,MEAN CORPUSCULAR HEMOGLOBIN CONCENTRATION,[2],40.07 G/DL
same,MEAN CORPUSCULAR VOLUME,[2],62.17 fL
same,MONOCYTE,[2],0.17%
same,NEUTROPHIL,[2],8.17%
same,NUCLEATED RED BLOOD CELLS,[2],0.17 /100WBC
same,PLATELET COUNT,[2],1261.83 x10E3/uL
same,ALANINE AMINOTRANSFERASE,[2],58.67 u/L
same,ALBUMIN,[2],4.15 G/DL
same,ALKALINE PHOSPHATASE,[2],364.67 u/L
same,ASPARTATE AMINOTRANSFERASE,[2],105.33 u/L
same,BLOOD UREA NITROGEN,[2],17.67 mg/dL
same,CARBON DIOXIDE,[2],26.5 mmol/L
same,CHLORIDE,[2],101.67 MEQ/L
same,CHOLESTEROL,[2],63 mg/dL
same,CREATINE PHOSPHOKINASE,[2],480.67 u/L
same,CREATININE,[2],0.17 mg/dL
same,GLUCOSE,[2],144.67 mg/dL
same,LACTATE DEHYDROGENASE,[2],540.33 u/L
same,LIPASE,[2],10.33 u/L
same,PHOSPHORUS,[2],11.52 mg/dL
same,POTASSIUM,[2],6.12 MEQ/L
same,SODIUM,[2],142.45 MEQ/L
same,TOTAL BILIRUBIN,[2],0.18 mg/dL
same,TOTAL PROTEIN,[2],5.73 G/DL
same,URIC ACID,[2],1.48 mg/dL
same,ABSOLUTE BASOPHIL,[3],0 CELLS/uL
same,ABSOLUTE EOSINOPHIL,[3],38.67 CELLS/uL
same,ABSOLUTE LYMPHOCYTE,[3],9113.67 CELLS/uL
same,ABSOLUTE MONOCYTE,[3],101 CELLS/uL
same,ABSOLUTE SEGMENTED NEUTROPHIL,[3],846.67 CELLS/uL
same,BASOPHIL,[3],0%
same,EOSINOPHIL,[3],0.33%
same,ERYTHROCYTE COUNT,[3],5.25 x10E6/uL
same,HEMATOCRIT,[3],31.97%
same,HEMOGLOBIN,[3],12.93 G/DL
same,LEUKOCYTE COUNT,[3],10.1 x10E3/uL
same,LYMPHOCYTE,[3],90.33%
same,MEAN CORPUSCULAR HEMOGLOBIN,[3],24.73 pg
same,MEAN CORPUSCULAR HEMOGLOBIN CONCENTRATION,[3],40.53 G/DL
same,MEAN CORPUSCULAR VOLUME,[3],60.97 fL
same,MONOCYTE,[3],1%
same,NEUTROPHIL,[3],8.33%
same,NUCLEATED RED BLOOD CELLS,[3],0 /100WBC
same,PLATELET COUNT,[3],798.67 x10E3/uL
same,ABSOLUTE BASOPHIL,[4],0 CELLS/uL
same,ABSOLUTE EOSINOPHIL,[4],61.33 CELLS/uL
same,ABSOLUTE LYMPHOCYTE,[4],18023 CELLS/uL
same,ABSOLUTE MONOCYTE,[4],62 CELLS/uL
same,ABSOLUTE SEGMENTED NEUTROPHIL,[4],687 CELLS/uL
same,BASOPHIL,[4],0%
same,EOSINOPHIL,[4],0.33%
same,ERYTHROCYTE COUNT,[4],5 x10E6/uL
same,HEMATOCRIT,[4],31.67%
same,HEMOGLOBIN,[4],13 G/DL
same,LEUKOCYTE COUNT,[4],18.83 x10E3/uL
same,LYMPHOCYTE,[4],95.67%
same,MEAN CORPUSCULAR HEMOGLOBIN,[4],26 pg
same,MEAN CORPUSCULAR HEMOGLOBIN CONCENTRATION,[4],41.03 G/DL
same,MEAN CORPUSCULAR VOLUME,[4],63.33 fL
same,MONOCYTE,[4],0.33%
same,NEUTROPHIL,[4],3.67%
same,NUCLEATED RED BLOOD CELLS,[4],0 /100WBC
same,PLATELET COUNT,[4],1148.67 x10E3/uL
